Laboratory results taken from US6500443B1, “Delivery of a sacrificial substrate to inhibit protease permeation into skin” (Kimberly-Clark Worldwide, Inc., priority 1999, dated 2002).

Conditions: excised skins, modified FRANZ diffusion cells, over a 36 hour period, from treated fabric
Method: The fabrics were then tested for topical delivery of the zinc salt using excised skins in modified FRANZ diffusion cells. The amount of zinc accumulating and penetrating the skin was determined over a 36 hour period.

zinc sulfate monohydrate
accumulation of zinc in skin: 1311 μg/g dry weight of skin
penetration of zinc through skin: 3.2 μg/cm^2/hr
